From patent US12485114B2, “Materials and methods useful to induce cancer cell death via methuosis or autophagy or a combination thereof” (The University of Toledo, priority 2017, dated 2025)

What was measured:
Assay in all cases: Morphological assessment of vacuolization
Assay type in all cases: cell-based
[1] = system: BT-20 (triple negative breast cancer)
U-251 (glioblastoma) = system: U-251 (glioblastoma)
HCT-116 (colon cancer) = system: HCT-116 (colon cancer)
From the text: The methuophagy inducing activities of BAPT-27 were also prominent in different colon cancer cell lines with different genetic profiles. […] (FIG. 42). However, the vacuoles formation was not prominent in normal epithelial colon cells (CRL-1459). (FIG. 42).

Measured: vacuolization

Cc1[nH]c2ccccc2c1-c1nn2c(-c3ccncc3)nnc2s1 [BAPT-36]
dose dependent vacuolization: all assays above
